Measured values taken from US20130116263A1, “PAK INHIBITORS FOR THE TREATMENT OF CELL PROLIFERATIVE DISORDERS” (AFRAXIS, INC., priority 2011, published 2013).
pIC50: −log10 of the molar value.

Tests used:
Type in all cases: biochemical
PAK4 [1] = target: T1, PAK4 (Homo sapiens, UniProt O96013); assay: Additional in vitro PAK-4 inhibition assay at ATP 10 uM and 1 mM; details: 10 μM ATP; read-out: PAK4 IC50 (10 μM ATP)
Protocol: (§1) Similar in vitro PAK1 and PAK-4 inhibition assays are conducted in compounds for the treatment of cancer, but under ATP concentrations of 10 uM and 1 mM.

PAK1 [2] = target: T2, PAK1 (Homo sapiens, UniProt Q13153); assay: Additional in vitro PAK1 inhibition assay at ATP 10 uM and 1 mM
T2 sequence (Q13153 whole entry): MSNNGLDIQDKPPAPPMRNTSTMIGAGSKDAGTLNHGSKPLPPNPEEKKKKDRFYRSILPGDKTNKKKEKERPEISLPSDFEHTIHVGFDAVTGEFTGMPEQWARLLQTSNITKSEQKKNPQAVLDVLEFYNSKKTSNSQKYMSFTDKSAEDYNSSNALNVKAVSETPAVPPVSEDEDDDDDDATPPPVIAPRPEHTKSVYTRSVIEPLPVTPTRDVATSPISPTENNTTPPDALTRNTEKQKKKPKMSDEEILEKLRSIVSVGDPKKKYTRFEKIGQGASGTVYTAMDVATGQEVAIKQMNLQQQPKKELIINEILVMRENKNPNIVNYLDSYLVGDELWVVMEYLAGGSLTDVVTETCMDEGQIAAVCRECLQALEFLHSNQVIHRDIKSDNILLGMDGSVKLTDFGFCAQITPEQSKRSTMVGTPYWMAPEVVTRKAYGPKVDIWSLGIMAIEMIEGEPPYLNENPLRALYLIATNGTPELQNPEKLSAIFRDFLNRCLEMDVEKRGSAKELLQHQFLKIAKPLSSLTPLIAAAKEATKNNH
Protocol: as §1

PAK2 (PAK65) = PAK2 (PAK65) (Homo sapiens, UniProt Q13177); assay: In vitro PAK inhibition assay (Z'-LYTE, SelectScreen), PAK2; details: read-out: PAK2 IC50
Chain of PAK2 (PAK65) (Q13177 whole entry): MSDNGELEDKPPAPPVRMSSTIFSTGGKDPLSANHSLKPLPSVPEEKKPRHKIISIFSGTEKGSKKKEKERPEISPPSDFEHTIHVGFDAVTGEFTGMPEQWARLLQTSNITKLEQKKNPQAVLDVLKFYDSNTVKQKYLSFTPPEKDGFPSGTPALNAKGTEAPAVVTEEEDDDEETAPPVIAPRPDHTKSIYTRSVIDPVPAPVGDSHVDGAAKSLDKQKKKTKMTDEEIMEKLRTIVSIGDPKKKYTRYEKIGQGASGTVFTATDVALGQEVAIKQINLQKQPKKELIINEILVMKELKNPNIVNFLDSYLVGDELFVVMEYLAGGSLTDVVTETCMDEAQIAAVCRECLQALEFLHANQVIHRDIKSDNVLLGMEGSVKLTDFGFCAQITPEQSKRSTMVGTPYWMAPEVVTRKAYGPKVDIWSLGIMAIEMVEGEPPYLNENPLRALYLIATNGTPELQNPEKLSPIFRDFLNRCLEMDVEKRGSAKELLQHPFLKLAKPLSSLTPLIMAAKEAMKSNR
Method in brief: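 Z'-LYTE FRET readout using Ser/Thr 20 peptide (2 μM) with 0.29–6 ng PAK2 in 50 mM HEPES pH 7.5, 0.01% BRIJ-35, 10 mM MgCl2, 1 mM EGTA, 1% DMSO. Reaction and development each ran 60 min at room temperature.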

PAK3 = PAK3 (Homo sapiens, UniProt O75914); assay: In vitro PAK inhibition assay (Z'-LYTE, SelectScreen), PAK3; details: read-out: PAK3 IC50
Chain of PAK3 (O75914 1-544 isoform O75914-2): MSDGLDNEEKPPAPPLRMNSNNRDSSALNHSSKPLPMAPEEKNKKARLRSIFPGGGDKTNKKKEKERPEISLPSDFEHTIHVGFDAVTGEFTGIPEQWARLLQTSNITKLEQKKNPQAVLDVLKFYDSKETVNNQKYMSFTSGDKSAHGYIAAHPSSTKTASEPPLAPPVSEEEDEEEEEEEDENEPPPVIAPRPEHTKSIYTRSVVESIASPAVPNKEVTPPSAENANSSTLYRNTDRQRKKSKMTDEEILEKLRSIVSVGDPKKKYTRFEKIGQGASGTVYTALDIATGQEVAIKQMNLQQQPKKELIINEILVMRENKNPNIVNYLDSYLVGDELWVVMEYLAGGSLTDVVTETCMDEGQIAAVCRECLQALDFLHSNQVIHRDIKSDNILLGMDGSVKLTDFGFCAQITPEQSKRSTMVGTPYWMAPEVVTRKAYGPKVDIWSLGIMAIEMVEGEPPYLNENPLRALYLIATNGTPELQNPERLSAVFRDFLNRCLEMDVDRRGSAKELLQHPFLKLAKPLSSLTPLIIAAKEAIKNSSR
Method in brief: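 Z'-LYTE FRET format: PAK3 with Ser/Thr 20 peptide in 50 mM HEPES pH 7.5, 0.01% BRIJ-35, 10 mM MgCl2, 1 mM EGTA, 1% DMSO final. Kinase reaction 60 min at room temperature, then 60 min development and fluorescence read.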

PAK4 [3] = target: T1, PAK4; assay: In vitro PAK inhibition assay (Z'-LYTE, SelectScreen), PAK4
Method in brief: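 Z'-LYTE FRET assay with 0.1-0.75 ng PAK-4 and 2 μM Ser/Thr 20 peptide in 50 mM HEPES pH 7.5, 10 mM MgCl2, 1 mM EGTA, 0.01% BRIJ-35, 1% DMSO; ATP near apparent Km. 1 h kinase reaction at room temperature, then 1 h development; IC50 from 10-point 3-fold titrations fitted to a sigmoidal dose-response.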

PAK1 [4] = target: T2, PAK1; assay: In vitro PAK inhibition assay (Z'-LYTE, SelectScreen), PAK1; details: read-out: PAK1 IC50
Method in brief: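 FRET-based Z'-LYTE readout: PAK1 phosphorylates Ser/Thr 19 peptide in 50 mM HEPES pH 7.5, 0.01% BRIJ-35, 10 mM MgCl2, 1 mM EGTA, 1% DMSO, 60 min at room temperature, followed by 60 min development.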

[5] = 10 μM ATP, read-out: PAK1 IC50 (10 μM ATP)
[6] = 1 mM ATP, read-out: PAK1 IC50 (1 mM ATP)

T1 sequence (O96013 whole entry): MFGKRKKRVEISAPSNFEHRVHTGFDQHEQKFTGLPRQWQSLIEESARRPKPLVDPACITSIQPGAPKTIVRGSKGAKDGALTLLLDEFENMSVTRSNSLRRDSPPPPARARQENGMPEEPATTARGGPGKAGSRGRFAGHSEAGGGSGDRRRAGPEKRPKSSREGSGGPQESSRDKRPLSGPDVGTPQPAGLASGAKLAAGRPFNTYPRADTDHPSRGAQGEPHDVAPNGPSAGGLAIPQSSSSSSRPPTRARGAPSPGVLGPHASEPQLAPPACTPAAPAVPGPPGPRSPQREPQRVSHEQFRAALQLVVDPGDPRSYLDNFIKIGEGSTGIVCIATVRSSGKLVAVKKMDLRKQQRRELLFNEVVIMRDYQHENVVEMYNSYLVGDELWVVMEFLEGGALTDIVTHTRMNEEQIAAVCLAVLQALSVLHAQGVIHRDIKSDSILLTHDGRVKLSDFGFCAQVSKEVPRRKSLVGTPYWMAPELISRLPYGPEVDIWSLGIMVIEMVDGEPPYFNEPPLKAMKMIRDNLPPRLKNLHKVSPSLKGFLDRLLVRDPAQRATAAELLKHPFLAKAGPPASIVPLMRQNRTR

Molecule: CCn1c(=O)c(-c2ccc(-c3noc(C)n3)cc2Cl)cc2cnc(NCc3cccnc3)nc21
- pIC50 (PAK4 [1]): ≤ 5.30
- pIC50 (PAK1 [2]; [5]): 5.30 to 6.30
- pIC50 (PAK1 [2]; [6]): ≤ 5.30

Molecule: CCn1c(=O)c(-c2ccc(-c3noc(C)n3)cc2Cl)cc2cnc(NC3CCCC3)nc21
- pIC50 (PAK4 [1]): 5.30 to 6.30
- pIC50 (PAK1 [2]; [5]): 5.30 to 6.30
- pIC50 (PAK1 [2]; [6]): ≤ 5.30

Molecule: Cc1nc(-c2ccc(-c3cc4cnc(NC5CCOCC5)nc4n(CC4CCCNC4)c3=O)c(Cl)c2)no1 (stereo not shown)
- pIC50 (PAK4 [1]): ≤ 5.30
- pIC50 (PAK1 [2]; [5]): 6.30 to 7.30
- pIC50 (PAK1 [2]; [6]): ≤ 5.30

Molecule: CCn1c(=O)c(-c2ccc(-c3noc(C)n3)cc2Cl)cc2cnc(NC3CCNC3=O)nc21 (stereo not shown)
- pIC50 (PAK4 [1]): ≤ 5.30
- pIC50 (PAK1 [2]; [5]): ≤ 5.30
- pIC50 (PAK1 [2]; [6]): ≤ 5.30

Molecule: Cc1nc(-c2ccc(-c3cc4cnc(NC5CCOCC5)nc4n(CC(=O)NC4CCNCC4)c3=O)c(Cl)c2)no1
- pIC50 (PAK4 [1]): ≤ 5.30
- pIC50 (PAK1 [2]; [5]): 5.30 to 6.30
- pIC50 (PAK1 [2]; [6]): ≤ 5.30

Molecule: Cc1nc(-c2ccc(-c3cc4cnc(NC5CCOCC5)nc4n(CCC4CCNCC4)c3=O)c(Cl)c2)no1 [drawing 343]
- pIC50 (PAK4 [1]): ≤ 5.30
- pIC50 (PAK1 [2]; [5]): > 7.30
- pIC50 (PAK1 [2]; [6]): 5.30 to 6.30

Molecule: Cc1nc(-c2ccc(-c3cc4cnc(NC5CCOCC5)nc4n(C4CCN(C(=O)CN)CC4)c3=O)c(Cl)c2)no1
- pIC50 (PAK4 [1]): ≤ 5.30
- pIC50 (PAK1 [2]; [5]): 6.30 to 7.30
- pIC50 (PAK1 [2]; [6]): ≤ 5.30

Molecule: CCn1c(=O)c(-c2ccc(-c3noc(C)n3)cc2Cl)cc2cnc(NC3(C)CC3)nc21
- pIC50 (PAK4 [1]): ≤ 5.30
- pIC50 (PAK1 [2]; [5]): 5.30 to 6.30
- pIC50 (PAK1 [2]; [6]): ≤ 5.30

Molecule: Cc1nc(-c2ccc(-c3cc4cnc(NC5CCOCC5)nc4n(Cc4ccc5c(c4)CNC5)c3=O)c(Cl)c2)no1
- pIC50 (PAK4 [1]): ≤ 5.30
- pIC50 (PAK1 [2]; [5]): 6.30 to 7.30
- pIC50 (PAK1 [2]; [6]): ≤ 5.30

Molecule: Cc1nc(-c2ccc(-c3cc4cnc(NC5CCOCC5)nc4n(Cc4ccccc4)c3=O)c(Cl)c2)no1
- pIC50 (PAK4 [1]): ≤ 5.30
- pIC50 (PAK1 [2]; [5]): 5.30 to 6.30
- pIC50 (PAK1 [2]; [6]): ≤ 5.30

Molecule: Cc1nc(-c2ccc(-c3cc4cnc(NC5CCOCC5)nc4n(Cc4cccc(CN)c4)c3=O)c(Cl)c2)no1 [drawing 342]
- pIC50 (PAK4 [1]): ≤ 5.30
- pIC50 (PAK1 [2]; [5]): > 7.30
- pIC50 (PAK1 [2]; [6]): 6.30 to 7.30

Molecule: Cc1nc(-c2ccc(-c3cc4cnc(NC5CCOCC5)nc4n(C4CCOC(C)(C)C4)c3=O)c(Cl)c2)no1 (stereo not shown)
- pIC50 (PAK4 [1]): ≤ 5.30
- pIC50 (PAK1 [2]; [5]): > 7.30
- pIC50 (PAK1 [2]; [6]): 5.30 to 6.30

Molecule: Cc1nc(-c2ccc(-c3cc4cnc(NC5CCOCC5)nc4n(CC4CCNCC4)c3=O)c(Cl)c2)no1 [drawing 340]
- pIC50 (PAK4 [1]): ≤ 5.30
- pIC50 (PAK1 [2]; [5]): > 7.30
- pIC50 (PAK1 [2]; [6]): 5.30 to 6.30

Molecule: CCN1CCC(Cn2c(=O)c(-c3ccc(-c4noc(C)n4)cc3Cl)cc3cnc(NC4CCOCC4)nc32)CC1
- pIC50 (PAK4 [1]): ≤ 5.30
- pIC50 (PAK1 [2]; [5]): 6.30 to 7.30
- pIC50 (PAK1 [2]; [6]): ≤ 5.30

Molecule: CCNc1ncc2cc(-c3ccc(-c4noc(C)n4)cc3Cl)c(=O)n(CC)c2n1
- pIC50 (PAK4 [1]): ≤ 5.30
- pIC50 (PAK1 [2]; [5]): 5.30 to 6.30
- pIC50 (PAK1 [2]; [6]): ≤ 5.30

Molecule: CCn1c(=O)c(-c2ccc(-c3noc(C)n3)cc2Cl)cc2cnc(NCCCO)nc21
- pIC50 (PAK4 [1]): ≤ 5.30
- pIC50 (PAK1 [2]; [5]): 6.30 to 7.30
- pIC50 (PAK1 [2]; [6]): ≤ 5.30

Molecule: 6-(2-chloro-4-(5-methyl-1,2,4-oxadiazol-3-yl)phenyl)-2-(4-(1-methylpiperidin-4-yl)phenylamino)pyrido[2,3-d]pyrimidin-7(8H)-one [Example 95]
- pIC50 (PAK2 (PAK65)): 6.30 to 7.30
- pIC50 (PAK3): 5.30 to 6.30
- pIC50 (PAK4 [3]): < 5.30
- pIC50 (PAK1 [4]): 6.30 to 7.30

Molecule: CCn1c(=O)c(-c2ccc(-c3cnc(C)s3)cc2Cl)cc2cnc(N[C@@H]3CCOC3)nc21 [Example 55]
- pIC50 (PAK2 (PAK65)): 6.30 to 7.30
- pIC50 (PAK3): 5.30 to 6.30
- pIC50 (PAK4 [3]): < 5.30
- pIC50 (PAK1 [4]): 6.30 to 7.30

Molecule: CCn1c(=O)c(-c2ccc(-c3nccnc3C)cc2Cl)cc2cnc(NC3CCS(=O)(=O)CC3)nc21 [Example 75]
- pIC50 (PAK2 (PAK65)): 6.30 to 7.30
- pIC50 (PAK3): 5.30 to 6.30
- pIC50 (PAK4 [3]): < 5.30
- pIC50 (PAK1 [4]): 6.30 to 7.30

Molecule: O=c1c(-c2ccc(-c3cccnc3)cc2Cl)cc2cnc(NC3CCOCC3)nc2n1Cc1ccccc1C(F)(F)F [Example 22]
- pIC50 (PAK2 (PAK65)): > 7.30
- pIC50 (PAK3): 6.30 to 7.30
- pIC50 (PAK4 [3]): < 5.30
- pIC50 (PAK1 [4]): 6.30 to 7.30
